Data reported in patent publication US6011041A, “Use of anhydrovinblastine” (priority 1996, dated 2000).
Counter-ions that a name gives are not always drawn. Like-named read-outs stand apart in the source and are kept apart here.

Experiments:
[1] = tested on: Nb2-U17 lymphoma; test: Nb2-U17 lymphoma transplant efficacy in Nb rats (FIGS. 2-3); format: in vivo, rat; details: for time to regression of tumours to essential non-palpability: single i.p. subacutely toxic dose (AHVB 3.0, navelbine 2.0, vincristine 0.7 mg/kg); for recurrence of tumours after day 10 / time after which most of the lost animal weight was regained: single i.p. subacutely toxic dose, Nb2-U17 rats; for anti-tumour effect at 50% of maximum tolerated dose, relative potency: half subacutely toxic dose, single i.p. (AHVB 1.5, navelbine 1.0, vincristine 0.35 mg/kg)
From the text: The U17 cell line was originally derived from a transplantable malignant lymphoma that arose spontaneously in male Noble rats (British Columbia Cancer Research center Joint Animal Breeding Facility with parents obtained from the National Institutes of Health, Bethesda, Md.). The cell line is prolactin dependent and can readily be cultured in vitro. U17 derived solid tumours are generated by subcutaneous injection (via the trocar method) of a small (2 mm^2) piece of tumour tissue obtained from male Noble rat. Tumour tissue used for the implants arose two weeks after injection of 5×10^6 U17 cells (from culture) subcutaneously in the nape of the neck. For assessing the anti-tumour activity of AHVB, tumour bearing animals (2-4 gm tumours) were given a single treatment of drug and tumour size was measured as a function of time following treatment. The anti-tumour activity was assessed at a series of different doses in order to determine the maximum therapeutic dose of AHVB. Comparative studies between vincristine, vinblastine and AHVB were performed.
Cultures of the non-metastatic, pre-T Nb2 lymphoma line originally developed at The University of British Columbia and designated Nb2-U17 (Anticancer Research 14:2485-2492, 1994), and are available from the British Columbia Cancer Research Center. Cells from exponentially growing Nb2-U17 suspension cultures were injected subcutaneously into methoxyflurane-anesthetized, mature male Nb rats (5 rats; 310-380 grams; 5×10^6 cells/rat in 1 ml of culture medium) at the nape of the neck using a 1.5" 20-gauge needle. At about 3 weeks, when the tumours reached a size of 4-7 cm (length+width), the animals were sacrificed and the tumours used for transplantation as described below.
A tumour from a rat was excised, minced and the tumour tissue was put into trocars (2", 13 gauge). The tissue samples were implanted subcutaneously in the nape of the neck of methoxyflurane-anesthetized male Nb rats (248-404 grams; 1 trocar per rat). This procedure was repeated 5 times to get a total of 60 tumour-bearing rats to be used for efficacy studies of the 3 drugs.
When the tumours were well established (1.5-2 weeks later), three separate groups of 20 rats, as closely matched as possible in terms of both tumour weight and rat weight, were selected for administration of the three test articles (i.e. one group for each test article).
Vincristine was administered to rats weighing 281-384 grams, bearing tumours weighing 6.3-16.3 grams. Navelbine was administered to rats weighing 274-389 grams bearing tumours weighing 9.1-23.3 grams. AHVB was administered to rats weighing 303-400 grams, bearing tumours weighing 7.9-25.9 grams. Tumour weights were estimated using the hemi-ellipsoid model (weight in grams=[…] in cm).
The oncolytic effects of each of the three drugs were assessed at a subacutely toxic dose, determined for each drug in preliminary studies using non-tumour-bearing, mature male Nb rats, i.e. 3.0, 2.0 and 0.7 mg/kg for […], navelbine and vincristine, respectively as illustrated in FIG. 2. In addition, each drug was assessed at 50% and 25% of its subacutely toxic dose. Five tumour-bearing rats were used to evaluate the effect at each dose level. The drugs were administered intraperitoneally as a single bolus in a volume of 0.19-0.31 ml, as indicated by the weight of the animals. To this end, drug preparations were diluted to appropriate concentrations using sparged saline adjusted with acetic acid to pH 4.2. For each drug, a group of 5 control rats received an intraperitoneal injection of the equivalent amount of saline (pH 4.2). The tumour-bearing rats were organized in the following groups:
Following administration of the test articles, the animals; weight and tumour size (using calipers) were determined daily until the tumour reached an estimated weight of 35 grams, or started to ulcerate, at which times the animals were sacrificed (by carbondioxide inhalation) and subjected to necropsy. […]

[2] = tested on: LS180 human colon carcinoma; test: MTT dose response cytotoxicity, LS180 (Table 1); format: cell-based; details: read-out: DRUG IC50
Protocol: (§1) Cytotoxicity experiments on AHVB were performed as direct comparisons with vincristine and navelbine in order to assess its inherent antineoplastic profile against a variety of tumour cell types relative to other relevant vinca alkaloids. The cytotoxicity of AHVB was investigated in vitro against a panel of tumour cell lines of varying lineage in order to determine the specificity of its antitumour activity with respect to cell type. The tumour lines studied were P388 lymphocytic leukemia (a murine lymphocytic leukemia), Noble (Nb) rat U17 lymphoma, MCF7 human breast carcinoma, H460 human non-small cell lung carcinoma, K562 human erythrokeukemia and LS180 human colon carcinoma based on established NCI in vitro new anticancer drug cytotoxicity screening protocols.
(§2) Standard dose response cytotoxicity assays (R. Mosmass, J. Immunol. Meth., 65:55-64, 1983) were utilized to determine the IC50 (drug concentration required to induce 50% inhibition of tumour cell growth) for vincristine, navelbine and AHVB. The indicated cell lines were obtained from either the ATCC or NCI tumor repository and were cultured in tissue culture media by standard techniques well known to those skilled in the art, prior to dilution to a defined cell concentration required for the studies in 96 well plates.
(§3) A wide range of drug concentrations were exposed to tumour cells growing at log phase in 96-well microtitre plates. Cell concentrations depended on the cell line as well as the length of time to be cultured. Typically, P388 cells were plated at a concentration of 30,000, 2,000 and 750 cells per well for studies lasting 1, 3 and 7 days, respectively MCF7 cells were plated at a concentration of 7,000 and 1,500 cells per well for studies lasting 3 and 7 days, respectively. H460 cells were plated at a concentration of 2,500 and 1,000 cells per well for studies lasting 3 and 7 days, respectively. K562 cells were plated at a concentration of 1,500 and 10,000 cells per well for studies lasting 1 and 3 days, respectively. LS180 cells were plated at a concentration of 5,000 and […] cells per well for studies lasting 3 and 7 days, respectively. After plating all cell lines were incubated (CO2 incubator at 37° C., 5% CO2) for 24 hours prior to addition of the cytotoxic agent (See Table 1). Subsequently the plates were incubated for the indicated time period. At specified times, cells were washed and subsequently exposed to the dye inclusion marker MTT (3-(4,5-dimethylthiazol-2-yl)-2,5diphenyl tetrazolium), which accumulated into viable cells. MTT was added to the cells at a final concentration of 50 μg per well. After a 4 hour incubation, the cells were washed free of media and unreacted MTT, prior to addition of DMSO which was required to solubilize the insoluble formazan precipitate that formed in viable cells. After the sample was mixed through repeated pipetting, the colored product was measured using a plate reader operating at 570 nm. The absorbance values obtained for cells cultured in the absence of drug was assumed to represent 100% viability. Experiments were repeated to substantiate any differences noted between […] and other vinca alkaloids.

[3] = tested on: K562 human erythroleukemia; test: MTT dose response cytotoxicity, K562 (Table 1); format: cell-based; details: read-out: DRUG IC50
Protocol: as §1, §2, §3

[4] = 72 h, LS180, exposure time 3 days
[5] = 168 h, LS180, exposure time 7 days
[6] = 24 h, K562, exposure time 1 day
[7] = 72 h, K562, exposure time 3 days

| Compound | time to regression of tumours to essential non-palpability [1] [days] | recurrence of tumours after day 10 [1] | time after which most of the lost animal weight was regained [1] | IC50 [2, 4] [nM] | IC50 [2, 5] [nM] | IC50 [3, 6] [nM] | IC50 [3, 7] [nM] | anti-tumour effect at 50% of maximum tolerated dose, relative potency [1] | IC50 ([2]; LS180, 72 h) [nM] | IC50 ([2]; LS180, 168 h) [nM] | IC50 ([3]; K562, 24 h) [nM] | IC50 ([3]; K562, 72 h) [nM] |
| --- | --- | --- | --- | --- | --- | --- | --- | --- | --- | --- | --- | --- |
| CC[C@]1(O)C[C@H]2CN(CCc3c([nH]c4ccccc34)[C@@](C(=O)OC)(c3cc4c(cc3OC)N(C=O)[C@H]3[C@@](O)(C(=O)OC)[C@H](OC(C)=O)[C@]5(CC)C=CCN6CC[C@]43[C@@H]65)C2)C1 [vincristine, Sulfate of 22-oxovincaleukoblastine] | ≤ 5 | recurrence of tumours was not observed | about 17 days | > 50 | 1.5 | > 50 | 1.5 ± 0.4 | – | – | – | – | – |
| CCC1=CC2CN(CCc3c([nH]c4ccccc34)C(C(=O)OC)(c3cc4c(cc3OC)N(C)C3C(O)(C(=O)OC)C(OC(C)=O)C5(CC)C=CCN6CCC43C65)C2)C1 (centres unmarked) [AHVB, 3',4'-anhydrovinblastine] | ≤ 5 | occurred to about the same extent | about 17 days | – | – | – | – | less potent than vincristine | > 50 | 17.5 | > 50 | 18.8 ± 8.8 |
| CCC1=C[C@@H]2CN(C1)Cc1c([nH]c3ccccc13)[C@@](C(=O)OC)(c1cc3c(cc1OC)N(C)[C@H]1[C@@](O)(C(=O)OC)[C@H](OC(C)=O)[C@]4(CC)C=CCN5CC[C@]31[C@@H]54)C2 [navelbine, 3',4'-didehydro-4'-deoxy-C'-norvincaleukoblastine-di-L-tartrate] | ≤ 5 | occurred to about the same extent | about 17 days | > 50 | 0.5 | > 50 | 2.5 ± 2.2 | less potent than AHVB | – | – | – | – |
